Values of other authors, collected in patent publication US6685969B2, “Treatment for ectoparasites” (Schering-Plough HealthCare Products, Inc., priority 2001, dated 2004).

Test system: Head Lice
Details: comparison of published results

CC1(C)C(C=C(Cl)Cl)C1C(=O)OCc1cccc(Oc2ccccc2)c1 (stereo not shown) [Permethrin]
Evidence of efficacy among topical pesticidal treatments: sufficient evidence of efficacy
